Like-named read-outs stand apart in the source and are kept apart here.
How the values were obtained:
[1] = tested on: female double transgenic (dtg) rats; assay: Mean arterial pressure by telemetry in double transgenic rats; format: in vivo, rat; settings: for max MAP decrease: versus control group
Experimental: Female double transgenic (dtg) rats, which are transgenic for human renin and angiotensin (see, e.g., Bohlender et al., J AM SOC NEPHROL 11:2056 (2000)) were used. All animals were maintained under identical conditions and had free access to normal pelleted rat chow and water. Rats were initially treated with enalapril (1 mg/kg/day), starting 3 weeks after birth and continuing for 2 months. After approximately two weeks following cessation of enalapril treatment, the double transgenic rats are hypertensive, with mean arterial blood pressures in the range of 160-170 mmHg.
Transmitter implantation—The rats were anesthetized using isoflurane (via inhalation, 2-3%) The pressure transmitter was implanted under aseptic conditions into the peritoneal cavity with the sensing catheter placed in the descending aorta below the renal arteries pointing upstream. The transmitter was sutured to the abdominal musculature, the skin closed, and the rats were individually housed in a cage, placed on a telemetry receiver pad to enable collection of the blood pressure data during recovery from anesthesia and thereafter. The rats were singly caged for the duration of the recording of telemetry data.
Telemetry-System—Telemetry units were obtained from Data Sciences (St. Paul, Minn.). […] The tip of the catheter was filled with a viscous gel that prevents blood reflux and was coated with an antithrombogenic film. The implants (length=2.5 cm, diameter=1.2 cm) weighed 9 g and have a typical battery life of 6 months. A receiver platform (model RPC-1 from Data Sciences) connected the radio signal to digitized input that was sent to a dedicated personal computer. Arterial pressures were calibrated by using an input from an ambient-pressure reference (APR-1, Data Sciences). Systolic, mean, and diastolic blood pressures were expressed in millimeter of mercury (mmHg).
Drug administration—For oral dosing, aliskiren was dissolved in 0.5% methocel and administered via feeding tubes. The compound was dosed in a single bolus of 3 mg/5 ml/kg or 30 mg/5 ml/kg. After dosing, the rat was returned to the cage. Blood pressure data were collected up to 7 days after oral dosing.
For transdermal delivery, aliskiren was dissolved in 100% DMSO to be applied in a single application of 250 μl of solution. The rat was lightly sedated under 2.5% isoflurane anesthesia, and its back was shaved over a 4 cm^2 area. The animal was returned to the cage to recover from anesthesia. Twenty-four hours later, the rat was lightly sedated under 2.5% isoflurane anesthesia, and the shaved area disinfected with 3 passes of ethanol.
After evaporation of the ethanol, a volume of 250 μl of 100% DMSO only, or of the compound dissolved in a 100% DMSO solution was applied over the shaved area using a micropipette. After complete evaporation of the DMSO solution (within 5 min after application), an occlusive transparent, waterproof film (OpSite) was taped to the back of the animal over the shaved area, and a jacket was fitted on the animal. Isoflurane inhalation was stopped, and the animal individually caged. Blood pressure data was collected up to 5 days after application of the compound/DMSO solution.
Hemodynamic measurements—For oral delivery, double transgenic rats with implanted pressure transmitters were dosed by oral gavage with a single bolus of vehicle (5 ml/kg) or of the test substance (30 mg/5 ml/kg) (n=6 per group).
For transdermal delivery, double transgenic rats with implanted pressure transmitters were dosed with a single application of vehicle (250 μl of 100% DMSO; n=4) or of the test substance (10 mg in 250 μl of 100% DMSO, i.e. 36 mg/kg; n=5).
The mean arterial blood pressure was continuously monitored. The effect of the test substance is expressed as maximal decrease of mean arterial pressure (MAP) in the treated group versus the control group. […]

[2] = Bioavailability of aliskiren after oral and transdermal administration in Sprague-Dawley rats (plasma LC-MS/MS); format: in vivo, rat; settings: male SD rats; for AUC: Sprague-Dawley, rat, plasma
Experimental: Male Sprague-Dawley rats (300-400 g body weight) were purchased from Charles River Canada Corporation (188 Rue LaSalle, St-Constant, QC, J5A 1Y2, Canada). […] For oral dosing, aliskiren was dissolved in 0.5% methocel and administered via feeding tubes. The compound was dosed in a single bolus of 3 mg/5 ml/kg or 25 mg/5 ml/kg. For intravenous (IV) […] dosing, aliskiren was dissolved in 60% PEG 200 and administered in a single bolus at 0.5 mg/1 ml/kg. For transdermal delivery, aliskiren was dissolved in 100% DMSO, and applied (single application of 250 μl of solution) onto the shaved skin of the rat. The rat was lightly sedated under 2.5% isoflurane anesthesia, and its back was shaved over a 4 cm^2 area. The animal was returned to its cage to recover from anesthesia. Twenty-four hours later, the rat was lightly sedated under 2.5% isoflurane anesthesia, and the shaved area was disinfected with three passes of ethanol. After evaporation of the ethanol, a volume of […] of 100% DMSO only, or of the compound dissolved in a 100% DMSO solution was applied over the shaved area using a micropipette. After complete evaporation of the DMSO solution (within 5 min after application), an occlusive transparent, waterproof film (OpSite) was taped to the back of the animal over the shaved area, and a jacket was fitted on the animal. Isoflurane inhalation was stopped, and the animal individually caged. The jacket was removed four hours after application of the compound solution.
A blood sample (0.4 ml) was taken by tail or jugular vein bleed for the determination of compound levels, 1 h, 2 h, 4 h, 6 h, 8 h, 10 h and 24 h after either oral gavage or application on the skin of the compound dissolved in 100% DMSO solution. The animal was euthanized after the 24 h time point. […] The plasma was separated by centrifugation and stored at −20° C. pending analysis. Plasma samples were analyzed for aliskiren concentrations using liquid chromatography coupled to mass spectrometry (LC-MS/MS).

[3] = tested on: plasma renin activity (PRA); assay: Plasma renin activity (PRA) after TD delivery in double transgenic rats; format: in vivo; settings: Rattus norvegicus, dTG rats, 4 h after delivery
Experimental: Pharmacokinetics and biomarkers—A blood sample (0.3 ml) was taken by tail bleed or jugular intravenous 4 h and 24 h after TD delivery to determine compound levels and plasma renin activity (PRA).

[4] = AUC of aliskiren after PO or TD delivery in telemetrized female dTG rats; format: in vivo, rat; settings: for AUC(0-t): double transgenic (dTG, human renin and angiotensin), rat, read-out: AUC24 h
Experimental: The rat was lightly sedated under 2.5% isoflurane anesthesia, and its back was shaved over a 4 cm^2 area.
After complete evaporation of the DMSO solution (within 5 min after application), an occlusive transparent, waterproof film (OpSite) was taped to the back of the animal over the shaved area, and a jacket was fitted on the animal. Isoflurane inhalation was stopped, and the animal individually caged.

[5] = TD, 36 mg/kg single application

Q: Which results are given for COCCCOc1cc(C[C@@H](C[C@H](N)[C@@H](O)C[C@H](C(=O)NCC(C)(C)C(N)=O)C(C)C)C(C)C)ccc1OC [aliskiren, (2S,4S,5S,7S)-5-amino-N-(2-carbamoyl-2,2-dimethylethyl)-4-hydroxy-7-{[4-methoxy-3-(3-methoxypropoxy)phenyl]methyl}-8-methyl-2-(propan-2-yl)nonanamide]?
A: ABC36 h ([1]; PO, 30 mg/kg single bolus): 630 mmHg * hr; duration (of MAP reduction) ([1]; PO, 30 mg/kg single bolus): 1.5 days; max MAP decrease ([1]; PO, 30 mg/kg single bolus): 40 mmHg; ABC36 h [1, 5]: 1213 mmHg * hr; duration (of MAP reduction) ([1]; TD, 36 mg/kg single application, 36 mg/kg): >3 days; max MAP decrease [1, 5]: 40 mmHg; AUC ([2]; topical, TD, 2.9 mg/kg): 0.084 µM·h; AUC ([2]; topical, TD, 29 mg/kg): 0.25 µM·h; AUC ([2]; PO, 3 mg/kg): 0.0021 µM·h; AUC ([2]; PO, 25 mg/kg): 0.058 µM·h; F ([2]; PO, 3 mg/kg): 0.1%; F ([2]; PO, 25 mg/kg): 0.43%; F ([2]; TD, 2.9 mg/kg): 5.4%; F ([2]; TD, 29 mg/kg): 1.6%; inhibition at 36 mg/kg [3]: 97%; increase of AUC, transdermal versus oral delivery ([4]; at the dose used (TD 36 mg/kg vs PO 30 mg/kg)): 70 fold; AUC(0-t) ([4]; blood, topical, TD, 36 mg/kg): 1.5 µM·h; AUC(0-t) ([4]; in vivo, PO, 30 mg/kg): < 0.021 µM·h
